{"source": "patent US12068150B2", "about": "“Substrate cleaning solution, and using the same, method for manufacturing cleaned substrate and method for manufacturing device” (Merck Patent GmbH, priority 2018, dated 2024)"}
{"test": "Evaluation of Solubility in 5.0 mass % ammonia water", "format": "physicochemical", "conditions": "component (A), 100 ppm and 1,000 ppm, shaken 3 hours, checked visually", "procedure": "(§1) The solubility can be evaluated by known methods. For example, it can be determined under the condition of 20-35° C. (more preferably 25±2° C.) by providing a flask charged with 100 ppm of the above (A) or the below-mentioned (B) in 5.0 mass % ammonia water, covering the flask with a cap, shaking for 3 hours in a shaker, and confirming whether (A) or (B) is dissolved or not. The shaking may be stirring. Dissolution can be also judged visually. […] In the present specification, soluble includes slightly soluble in a broad sense. In the present specification, the solubility becomes low in the order of insoluble, hardly soluble and soluble. In the present specification, slightly soluble is less soluble than soluble and more soluble than hardly soluble in a narrow sense.\n(§2) 4 mg of each component (for example, 2,2-bis (4-hydroxyphenyl) propane) to be used thereafter is put in a 50 mL sample bottle, and 5.0 mass % ammonia water is added to make the total amount to 40 g. Covering this with a cap, it is shaken and stirred for 3 hours. This gives a liquid having a component concentration of 100 ppm.\n(§3) The same procedure as described above is carried out except that the amount of each component added is changed to 40 mg, and a liquid having a component concentration of 1,000 ppm is obtained. Their solubility is checked visually. Evaluation criteria are as shown below.\n(§4) X: When the dissolution residue is confirmed at 100 ppm and 1,000 ppm, it is judged to be insoluble or hardly soluble.\n(§5) Y: When the dissolution residue is not confirmed at 100 ppm but confirmed at 1,000 ppm, it is judged to be slightly soluble.\n(§6) Z: When the dissolution residue is confirmed at neither 100 ppm nor 1,000 ppm, it is judged to be soluble."}
{"compound": "Oc1ccc(C(c2ccccc2)(c2ccccc2)c2ccc(O)cc2)cc1", "note": "[A11, 4,4′-dihydroxytetraphenylmethane]", "(A) Solubitity": "X (When the dissolution residue is confirmed at 100 ppm and 1,000 ppm, it is judged to be insoluble or hardly soluble.)"}
{"test": "Evaluation of Solubility in 5.0 mass % ammonia water", "format": "physicochemical", "conditions": "component (B), 100 ppm and 1,000 ppm, shaken 3 hours, checked visually", "procedure": "as §1, §2, §3, §4, §5, §6"}
{"compound": "CC(C)(c1ccc(O)cc1)c1ccc(O)cc1", "note": "[B1, 2,2-bis(4-hydroxyphenyl)propane]", "(B) Solubitity": "Y (When the dissolution residue is not confirmed at 100 ppm but confirmed at 1,000 ppm, it is judged to be slightly soluble.)"}
{"compound": "Oc1ccc(CC(c2ccc(O)cc2)(c2ccc(O)cc2)c2ccc(O)cc2)cc1", "note": "[B2, 1,2,2,2-tetrakis(4-hydroxyphenyl)ethane]", "(B) Solubitity": "Z (When the dissolution residue is confirmed at neither 100 ppm nor 1,000 ppm, it is judged to be soluble.)"}
{"compound": "OC1CCCC(O)C1", "note": "(centres unmarked) [B3, 1,3-cyclohexanediol]", "(B) Solubitity": "Z (When the dissolution residue is confirmed at neither 100 ppm nor 1,000 ppm, it is judged to be soluble.)"}
{"compound": "Cc1ccc(O)c(Cc2cc(C)cc(Cc3cc(C)ccc3O)c2O)c1", "note": "[B4, 2,6-bis[(2-hydroxy-5-methylphenyl)methyl]-4-methylphenol]", "(B) Solubitity": "Y (When the dissolution residue is not confirmed at 100 ppm but confirmed at 1,000 ppm, it is judged to be slightly soluble.)"}
{"compound": "Cc1ccc(O)c(Cc2cc(C)ccc2O)c1", "note": "[B5, 2,2′-methylenebis(4-methylphenol)]", "(B) Solubitity": "Z (When the dissolution residue is confirmed at neither 100 ppm nor 1,000 ppm, it is judged to be soluble.)"}
{"compound": "Oc1ccc(-c2ccc(O)cc2)cc1", "note": "[B6, 4,4′-dihydroxybiphenyl]", "(B) Solubitity": "Y (When the dissolution residue is not confirmed at 100 ppm but confirmed at 1,000 ppm, it is judged to be slightly soluble.)"}
{"compound": "Oc1ccc2cc(O)ccc2c1", "note": "[B7, 2,6-naphthalenediol]", "(B) Solubitity": "Y (When the dissolution residue is not confirmed at 100 ppm but confirmed at 1,000 ppm, it is judged to be slightly soluble.)"}
{"compound": "CC(C)(O)C#CC(C)(C)O", "note": "[B8, 2,5-dimethyl-3-hexyne-2,5-diol]", "(B) Solubitity": "Z (When the dissolution residue is confirmed at neither 100 ppm nor 1,000 ppm, it is judged to be soluble.)"}
{"compound": "CCC(C)(O)C#CC(C)(O)CC", "note": "(centres unmarked) [B9, 3,6-dimethyl-4-octin-3,6-diol]", "(B) Solubitity": "Z (When the dissolution residue is confirmed at neither 100 ppm nor 1,000 ppm, it is judged to be soluble.)"}
{"compound": "CC(C)(C)c1cc(O)c(C(C)(C)C)cc1O", "note": "[B10, 2,5-di-tert-butylhydroquinone]", "(B) Solubitity": "Z (When the dissolution residue is confirmed at neither 100 ppm nor 1,000 ppm, it is judged to be soluble.)"}
